What was measured:
[1] = Particle size analysis with particle size analyzer; format: physicochemical; settings: for size of commercially available crystalline drug: crude powder, before homogenization
Description: Particle size analysis was performed using a particle size analyzer (Schimdzu, Japan). […] To uniformly mix drugs having a polymer combination and a colloid formulation, the drugs were homogenized at an optimum rotary speed of 21,000 rpm for 5 minutes using a rotor homogenizer (Homogenizer Power Gen 500, Fisher Scientific, USA). Ultrasonication was performed at […] using an ultrasonicator (Sonic vibra cell, USA). In the size analysis, distilled water was used as a solvent, and an average of values obtained reading each of samples three times was calculated. The particle size reading was performed at an interval of 30 minutes due to the tendency of the drug to be crystallized when the drug is exposed to distilled water for a long period of time.

[2] = In vitro drug release by Franz cell diffusion; format: in vitro ADME; settings: pig skin; for release of drug from SPS microneedles: n=3; for time to diffusion after application: from SPS microneedles
Description: In vitro analysis was performed using Franz cell diffusion. Microneedles containing 0.1% NR and 0.75% CAP were applied onto the skin of a dead pig, and put on donor moieties of Franz cells. A receptor moiety was composed of PBS including 20% ethanol. A sample was analyzed at intervals of 0, 0.5, 1, 2, 3, 4, 5, 6, 12, and 24 hours. The quantification of NR and CAP was performed at 559 nm and 280 nm using UV-Vis spectroscopy (Jasco, V650) and Ultra Performance Liquid Chromatography (UPLC) (Acquity UPLC, Waters), respectively. The amounts of NR and CAP in a microneedle patch were determined by dissolving the patch in PBS including 10% ethyl acetate and 20% ethanol, respectively. Thereafter, solid-phase extraction was performed using ethyl acetate as an eluent. A microneedle patch having no drug was used as the control. 0.1% NR dissolved in 20% ethyl acetate and CAP dissolved in 40% ethanol were used in a topical formulation model. This model was most widely used for a formulation of a lipophilic compound in which an organic solvent was used to dissolve the lipophilic drug. 1 mL of such a topical formulation was dropped on the skin of a pig until the topical formulation was diffused to an area of approximately 2 cm^2.
Also, the size of CAP particles released during diffusion of the Franz cells in the skin of a dead pig (FIG. 4C) was measured. PBS solution samples were taken from the Franz cell receptor after 0, 6, 12, 24 hours of application of the CAP microneedles, and the particle sizes of the samples were measured through SEM image analysis.

[3] = Colloid morphology and size by scanning electron microscope (SEM); format: physicochemical; settings: colloids of HA and PVP 1:1 with drug
Description: (§1) The morphology of a colloidal structure of a polymer was analyzed using a scanning electron microscope (SEM; equipped with Type JEOL (JSM-7001F) energy-dispersive X-ray (EDX) Oxford ISIS 300 micro-analysis system). For this experiment, platinum coating was performed at 10 mA to protect colloids from high-energy beams. Also, a decrease in the size of the colloids was confirmed using a transmission electron microscope (TEM), and this confirmation was performed on a very thin sample formed on a copper grid as an upper cover provided in the grid. A TEM micrograph was obtained at 120 kV using a JEM 2010 (HC) (JEOL Ltd, USA) microscope. The amorphous form of the drug in the colloidal structure was confirmed using a random XRD analysis on the sample, and continuously scanned at intervals of 3-80° 2θ using an Ultima IV diffractometer (Rigaku Corporation, Japan) with Bragg-Brentano geometry (2θ/θ) having 40 kV/30 mA X-ray and K-beta filter radiations.

IL-1β = assay: Serum IL-1β by ELISA in CIA mice; format: in vivo, DBA/1 mice; settings: versus RA model
[4] = Colloid size by transmission electron microscope (TEM); format: physicochemical; settings: colloids of HA and PVP 1:1 with drug
Description: as §1

[5] = cited from earlier work
[6] = homogenized with CMC (10% by weight), 0.1% NR, 0.75% CAP
[7] = homogenized with HA (10% by weight), 0.1% NR, 0.75% CAP
[8] = homogenized with PVA (10% by weight), 0.1% NR, 0.75% CAP
[9] = homogenized with PVP (10% by weight), 0.1% NR, 0.75% CAP
[10] = homogenized, polymer composition: None
[11] = in HA and PVP (1:1) smart polymer system

Row | release of drug from SPS microneedles ([2]; 0.1% NR microneedles, after 8 hours of application) [%] | Structure (SMILES) | size of commercially available crystalline drug [1] [μm] | particle size [1, 6] [μm] | particle size [1, 7] [μm] | particle size [1, 8] [μm] | particle size [1, 9] [μm] | particle size [1, 10] [μm] | particle size [1, 11] [nm] | release of drug from SPS microneedles ([2]; 0.75% CAP microneedles, after 12 hours of application) [%] | time to diffusion after application [2] | circular colloidal particle size (SEM) [3] | decrease of serum IL-1β level (IL-1β) | colloidal structure particle size (TEM) [4] [nm] | log P [5]
1 | – | COc1cc(CNC(=O)CCCC/C=C/C(C)C)ccc1O [CAP, capsaicin] | 4.845±3 | 43.856 ± 3 | 9.736 ± 2 | 2.676 ± 7 | 1.432 ± 3 | 0.986±6 | 167.4±4 | 86 | within an hour | approximately 155±8 nm | approximately 50% | 154±3 | –
2 | 74 | CCN(CC)c1ccc2nc3c4ccccc4c(=O)cc-3oc2c1 [NR, Nile Red] | 6.723±5 | 67.733 ± 8 | 11.083 ± 4 | 4.243 ± 8 | 1.564 ± 3 | 1.797±7 | 157.4±6 | – | ≤ 30 min | approximately 168±12 nm | – | 161±32 | 5

— patent publication US10537518B2, “Homogenization system of drugs into biodegradable polymer: smart polymer system” (Juvic Inc., priority 2015, dated 2020)
